# Marks after values point to notes of the source that are not given here.
# Tested on: normal canine prostate
# Assay: Normal canine prostate model, intraprostatic injection
# Description: Random-source adult male canines were used in this experiment.
# Body surface area (m2) was calculated for each animal using published tables.
# On the day of surgery, the animals were preanesthetized with acepromazine (0.22 mg/kg) and atropine (0.05 mg/kg) intramuscularly. General anesthesia was induced with intravenous thiopental sodium (20-25 mg/kg) and, following orotracheal intubation, was maintained with a 0.5-2.0% halothane-oxygen mixture given through a semi-closed circle system. Perioperative antibiotics consisted of intravenous gentamicin (3 mg/kg) on the day of surgery and daily intramuscular gentamicin (3 mg/kg) for seven days following surgery.
# In each animal, an 8 French urinary catheter was passed per urethra into the bladder, and the bladder was filled with normal saline. A diagnostic Aloka Echo SSD650 ultrasound machine with a UST 664 5/7.5 MHZ biplanar linear array transrectal probe (Wallingford, Conn.) was used to determine the maximal axial (transverse) width, height, and midline sagittal (longitudinal) length. The length was measured in the midline from the distal most aspect of the apex to the cephalad most portion of the gland. The volume was then determined using the following formula: length×width×½ height. A lower abdominal midline incision was created, and the peritoneal cavity was entered. The bladder and prostate were exposed and the periprostatic fat was carefully dissected off of the base of the gland. Using TRUS imaging of the prostate as well as direct visualization through the peritoneotomy a three inch 20 gauge spinal needle connected to a standard 10-cc luer-lock syringe containing the appropriate aliquot for injection was guided into the base of the right lobe of the prostate. The needle tip was localized within the prostatic parenchyma with ultrasound guidance and appropriately positioned.
# Animals were randomly divided into subgroups. Animals A1 and A2 received a volume of dehydrated ethanol equal to 100% of the measured prostate volume while the remaining animals received a volume of 98% dehydrated ethanol equal to 50% of the total gland volume as determined by TRUS imaging. The animals received escalating doses of Carmustine dissolved in dehydrated ethanol: A1 and A2 2 mg/ml; B1 and B2, 5 mg/ml; C1 and C2 12.5 mg/ml; D1 and D2 18 mg/ml; and E1 and E2, 25 mg/ml. All animal subgroups were injected on separate days under general anesthesia through a midline peritoneotomy approach using TRUS guidance for needle placement. The needle was initially positioned at the ventral aspect of the apex of the gland and then withdrawn from apex to base during the injection. The needle was then repositioned toward the dorsal aspect of the gland at the apex and withdrawn toward the base during the injection so that as much of the parenchyma could be covered as possible.
# Fourteen days following injection all animals underwent repeat TRUS imaging of the prostate gland under general anesthesia and were then euthanized by exsanguination under deep general anesthesia. The bladders and prostates were excised enbloc and fixed in formalin. If there was any evidence of perirectal inflammation or suspicion of pathology a section of the rectum was removed for pathologic examination. After adequate tissue fixation in formalin, the prostate glands were step sectioned and the volume of the prostate parenchyma affected (cm3) was calculated and quantitated based on the measured length, height and thickness of individual step sections of the gland. The volumes were then added together resulting in a quantification of the total parenchymal volume affected on a prostate gland for prostate gland basis. The tissue was then submitted for histopathologic interpretation.
# [1] = all animals, 14 days after injection
# [2] = carmustine 5 mg/ml ethanol, 50% of prostate volume, prostate volume 8.42, 14 days
# [3] = carmustine 5 mg/ml ethanol, 50% of prostate volume, prostate volume 9.8, 14 days
# [4] = carmustine 12.5 mg/ml ethanol, 50% of prostate volume, prostate volume 4.36, 14 days
# [5] = carmustine 12.5 mg/ml ethanol, 50% of prostate volume, prostate volume 20.16, 14 days
# [6] = carmustine 18 mg/ml ethanol, 50% of prostate volume, prostate volume 27.75, 14 days
# [7] = carmustine 18 mg/ml ethanol, 50% of prostate volume, prostate volume 37.2, 14 days
# [8] = carmustine 25 mg/ml ethanol, 50% of prostate volume, prostate volume 22.14, 14 days
structure (smiles),measurement,setting,value
"O=NN(CCCl)C(=O)NCCCl [Carmustine, carmustine]",relation of carmustine concentration to volume of tissue affected,"2-25 mg/ml carmustine in dehydrated ethanol, 14 days",highest concentrations of carmustine were associated with the largest volumes of tissue affected
same,rectal injuries,all animals,no rectal injuries
same,findings in prostatic parenchyma (TRUS and step sections),[1],hemorrhagic and coagulative necrosis
same,findings in the urethra,[1],"submucosal hemorrhage, mucosal erosion and inflammation"
same,Periprostatic Tissue Involvement,"carmustine 5 mg/ml ethanol, 50% of prostate volume, prostate volume 8.42",Marked fat necrosis
same,Volume Affected Left,[2],0.68 cc^3
same,Volume Affected PU (periurethral),[2],0 cc^3
same,Volume Affected Right,[2],1.73 cc^3
same,Periprostatic Tissue Involvement,"carmustine 5 mg/ml ethanol, 50% of prostate volume, prostate volume 9.8",Cystic necrosis R
same,Volume Affected Left,[3],1.61 cc^3
same,Volume Affected PU (periurethral),[3],2.51 cc^3
same,Volume Affected Right,[3],0.85 cc^3
same,Periprostatic Tissue Involvement,"carmustine 12.5 mg/ml ethanol, 50% of prostate volume, prostate volume 4.36",Moderate fat necrosis
same,Volume Affected PU (periurethral),[4],0.62 cc^3
same,Volume Affected left + right,[4],1.8 cc^3
same,Periprostatic Tissue Involvement,"carmustine 12.5 mg/ml ethanol, 50% of prostate volume, prostate volume 20.16",Minimal fat necrosis
same,Volume Affected Left,[5],1.8 cc^3
same,Volume Affected PU (periurethral),[5],0 cc^3
same,Volume Affected Right,[5],1.4 cc^3
same,Periprostatic Tissue Involvement,"carmustine 18 mg/ml ethanol, 50% of prostate volume, prostate volume 27.75",Marked fat necrosis
same,Volume Affected Left,[6],8.35 cc^3
same,Volume Affected PU (periurethral),[6],1.2 cc^3
same,Volume Affected Right,[6],12.31 cc^3
same,Periprostatic Tissue Involvement,"carmustine 18 mg/ml ethanol, 50% of prostate volume, prostate volume 37.2",Marked fat necrosis
same,Volume Affected Left,[7],11.76 cc^3
same,Volume Affected PU (periurethral),[7],3.84 cc^3
same,Volume Affected Right,[7],9.73 cc^3
same,Periprostatic Tissue Involvement,"carmustine 25 mg/ml ethanol, 50% of prostate volume, prostate volume 22.14",Mild fat necrosis
same,Volume Affected Left,[8],7.5 cc^3
same,Volume Affected PU (periurethral),[8],0 cc^3
same,Volume Affected Right,[8],4.8 cc^3
same,Periprostatic Tissue Involvement,"carmustine 25 mg/ml ethanol, 50% of prostate volume, prostate volume 32.64",Large pelvic abscess
same,Volume Affected left + right + periurethral,"carmustine 25 mg/ml ethanol, 50% of prostate volume, prostate volume 32.64, 14 days",32.64** cc^3

# — patent US6753005B1, “Method for tissue perfusion” (Direct Therapeutics, Inc., priority 1997, dated 2004)
